Results: patent US20240262832A1, “SMALL MOLECULE MODULATORS OF GLUCOCEREBROSIDASE ACTIVITY AND USES THEREOF” (Vanqua Bio, Inc., priority 2021, published 2024)
pEC50: −log10 of the molar value.

target: T1, GCase (Homo sapiens, UniProt P04062); assay: activation of GCase in a live cell PFB assay in HELA cells; format: cell-based
T1 construct: endogenous in cells; host or cells: HeLa cells
T1 sequence (P04062 40-536): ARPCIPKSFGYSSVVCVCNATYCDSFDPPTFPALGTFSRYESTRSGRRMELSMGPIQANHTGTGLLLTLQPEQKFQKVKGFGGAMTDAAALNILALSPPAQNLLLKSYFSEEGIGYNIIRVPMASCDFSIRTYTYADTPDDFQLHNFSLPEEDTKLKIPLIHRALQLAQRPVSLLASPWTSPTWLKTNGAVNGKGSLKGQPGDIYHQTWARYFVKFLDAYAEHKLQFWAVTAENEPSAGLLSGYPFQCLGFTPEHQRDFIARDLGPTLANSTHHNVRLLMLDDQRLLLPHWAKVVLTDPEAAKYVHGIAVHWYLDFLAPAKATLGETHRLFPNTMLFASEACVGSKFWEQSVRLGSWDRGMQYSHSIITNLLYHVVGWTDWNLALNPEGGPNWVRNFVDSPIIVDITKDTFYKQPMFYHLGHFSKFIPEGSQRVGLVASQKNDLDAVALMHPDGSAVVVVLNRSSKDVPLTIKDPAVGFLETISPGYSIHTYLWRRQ

Row | SMILES | pEC50
1 | O=C(c1ccc2cc[nH]c2c1)N1CCC(Oc2cccc(C(F)(F)F)n2)CC1 [Compound 327, (1H-Indol-6-yl)(4-((6-(trifluoromethyl)pyridin-2-yl)oxy)piperidin-1-yl)methanone] | 4.30 to 5.00
2 | COc1ccccc1OCC1CCCN(C(=O)c2c(-c3ccccc3)n(C)c3nccnc23)C1 (stereo not drawn) [Compound 235, (3-((2-Methoxyphenoxy)methyl)piperidin-1-yl)(5-methyl-6-phenyl-5H-pyrrolo[2,3-b]pyrazin-7-yl)methanone] | 4.30 to 5.00
3 | O=C(c1ccn2c1CSCC2)N1CCCC(COc2ccccc2)C1 (stereo not drawn) [Compound 220] | 4.00 to 4.30
4 | O=C(c1cnc2c(cnn2-c2ccccc2)n1)N1CCCC(COc2cccnc2C(F)(F)F)C1 (stereo not drawn) [Compound 103, (1-Phenyl-1H-pyrazolo[3,4-b]pyrazin-5-yl)(3-(((2-(trifluoromethyl)pyridin-3-yl)oxy)methyl)piperidin-1-yl)methanone] | 4.30 to 5.00
5 | N#Cc1cccnc1OC1CCN(C(=O)C23CC4CC(CC(C4)C2)C3)CC1 [Compound 375] | 4.30 to 5.00
6 | COc1ccc(OCC2CCN(C(=O)CC3CCOC3)CC2)cc1 (stereo not drawn) [Compound 472] | 4.00 to 4.30
7 | CC1CCC(COc2cccnc2C(F)(F)F)CN1C(=O)c1ccc2cc[nH]c2c1 (stereo not drawn) [Compound 128, (1H-Indol-6-yl)(2-methyl-5-(((2-(trifluoromethyl)pyridin-3-yl)oxy)methyl)piperidin-1-yl)methanone] | 4.30 to 5.00
8 | CCc1cnc(C)nc1N1CCC(COc2ccc(OC)cc2)CC1 [Compound 475] | 4.30 to 5.00
9 | CCc1nc(CN2CCC(COc3ccc(OC)cc3)CC2)no1 [Compound 470] | < 4.00
10 | CCc1ncc(C(=O)N2CCC(COc3ccc4c(c3)CCC4)CC2)cn1 [Compound 426] | 4.30 to 5.00
11 | COc1ccc(OCC2CCN(Cc3cnc(C)[nH]3)CC2)cc1 [Compound 444] | < 4.00

The next lines start with the values.

Row | pEC50 | SMILES
12 | 4.30 to 5.00 | FC(F)(F)c1ncccc1OC[C@@H]1[C@H]2CN(c3nccc(-c4nncs4)n3)C[C@@H]12 [Compound 121, (1R,5S,6r)-3-(4-(1,3,4-Thiadiazol-2-yl)pyrimidin-2-yl)-6-(((2-(trifluoromethyl)pyridin-3-yl)oxy)methyl)-3-azabicyclo[3.1.0]hexane]
13 | > 5.00 | C[C@@H]1CC[C@H](COc2cnccc2C(F)(F)F)CN1c1cnc2cnn(CC(F)F)c2n1 [Compound 274, 1-(2,2-Difluoroethyl)-6-((2R,5S)-2-methyl-5-(((4-(trifluoromethyl)pyridin-3-yl)oxy)methyl)piperidin-1-yl)-1H-pyrazolo[3,4-b]pyrazine]
14 | 4.30 to 5.00 | CCn1c(=O)n(CC)c2nc(N3C[C@@H](C)C[C@H](COc4cccnc4C(F)(F)F)C3)cnc21 [Compound 288b, 1,3-Diethyl-5-((3S,5S)-3-methyl-5-(((2-(trifluoromethyl)pyridin-3-yl)oxy)methyl)piperidin-1-yl)-1,3-dihydro-2H-imidazo[4,5-b]pyrazin-2-one]
15 | 4.30 to 5.00 | COCCn1ncc2ncc(N3C[C@@H](C)C[C@@H](COc4cccnc4C(F)(F)F)C3)nc21 [Compound 230a, 1-(2-Methoxyethyl)-6-((3S,5R)-3-methyl-5-(((2-(trifluoromethyl)pyridin-3-yl)oxy)methyl)piperidin-1-yl)-1H-pyrazolo[3,4-b]pyrazine]
16 | > 5.00 | C[C@H](Oc1ccccc1C(F)(F)F)[C@@H]1CCCN(c2cnc3cnn(CC(F)F)c3n2)C1 (racemic) [Compound 5c]
17 | > 5.00 | FC(F)Cn1ncc2ncc(N3C[C@@H]4[C@@H](COc5cccnc5C(F)(F)F)[C@@H]4C3)nc21 [Compound 1, (1R,5S,6S)-3-[1-(2,2-difluoroethyl)-1H-pyrazolo[3,4-b]pyrazin-6-yl]-6-({[2-(trifluoromethyl)pyridin-3-yl]oxy}methyl)-3-azabicyclo[3.1.0]hexane]
18 | > 5.00 | C[C@@H]1CC[C@@H](COc2cccnc2C(F)(F)F)CN1c1cnc2cnn(CC(F)F)c2n1 [Compound 79, 1-(2,2-Difluoroethyl)-6-((2R,5R)-2-methyl-5-(((2-(trifluoromethyl)pyridin-3-yl)oxy)methyl)piperidin-1-yl)-1H-pyrazolo[3,4-b]pyrazine]
